Laboratory results from ChEMBL document CHEMBL1143322, “Probing UDP-galactopyranose mutase binding pocket: a dramatic effect on substitution of the 6-position of UDP-galactofuranose” (Bioorg Med Chem Lett, 2009).

Tests used:
[1] = test system: Escherichia coli; test: Activity of Escherichia coli UDP-galactopyranose mutase by HPLC
[2] = test system: Escherichia coli; test: Ratio of Kcat to Km of Escherichia coli UDP-galactopyranose mutase; set-up: unit not given here
[3] = test system: Escherichia coli; test: Inhibition of Escherichia coli UDP-galactopyranose mutase assessed as inhibition of conversion to UDP-galactopyranose; settings: concentration not given here
[4] = Binding affinity to Escherichia coli UDP-galactopyranose mutase

Row | Km [1] | kcat [1] | kcat/Km [2] | inhibition [3] | SMILES | Kd [4]
1 | 600 µM | 12 s⁻¹ | 0.02 |  | O=c1ccn([C@@H]2O[C@H](COP(=O)(O)OP(=O)(O)O[C@H]3O[C@@H](CO)[C@H](O)[C@H]3O)[C@@H](O)[C@H]2O)c(=O)[nH]1 | 
2 | 65 µM | 0.033 s⁻¹ | 0.00041 |  | O=c1ccn([C@@H]2O[C@H](COP(=O)(O)OP(=O)(O)O[C@H]3O[C@@H]([C@@H](O)CO)[C@H](O)[C@H]3F)[C@@H](O)[C@H]2O)c(=O)[nH]1 | 
3 | 24000 µM | 7.4 s⁻¹ | 0.00034 | 20% | O=c1ccn([C@@H]2O[C@H](COP(=O)(O)OP(=O)(O)O[C@H]3O[C@@H]([C@@H](O)CF)[C@H](O)[C@H]3O)[C@@H](O)[C@H]2O)c(=O)[nH]1 | 
4 |  |  |  | 22% | O=c1ccn([C@@H]2O[C@H](COP(=O)(O)OP(=O)(O)O)[C@@H](O)[C@H]2O)c(=O)[nH]1 [URIDINE_DIPHOSPHATE] | 14 µM
5 | 861 µM | 5.7 s⁻¹ | 0.0054 |  | O=c1ccn([C@@H]2O[C@H](COP(=O)(O)OP(=O)(O)O[C@H]3O[C@@H]([C@@H](O)CO)[C@H](F)[C@H]3O)[C@@H](O)[C@H]2O)c(=O)[nH]1 | 
6 | 22 µM | 27 s⁻¹ | 1.23 |  | O=c1ccn([C@@H]2O[C@H](COP(=O)(O)OP(=O)(O)O[C@H]3O[C@@H]([C@@H](O)CO)[C@H](O)[C@H]3O)[C@@H](O)[C@H]2O)c(=O)[nH]1 | 
